Source: paper PMC8196580, “Identification of Kaurane-Type Diterpenes as Inhibitors of Leishmania Pteridine Reductase I” (Molecules, 2021)
Read-outs that look alike come from different tables or passages of the source.

Columns and labels:
[1] = system: L. major; experiment: ChEMBL dataset of pIC50 values against L. major used for the RF model (Table S1); assay type: cell-based, Leishmania major; further: call rule not given here
[2] = system: L. major; set-up: method as in ChEMBL; details: ref ChEMBL, cited from earlier work
[3] = Active/Inactive class assigned to the ChEMBL pIC50 value for Random forest model construction, ref ChEMBL
[4] = ChemBL structures with pIC50 values used for Random forest model construction, L. major
[5] = Active/Inactive class assigned to ChemBL structures for Random forest model construction (Table S1)
[6] = ChemBL structures with pIC50 values used for Random forest model construction (Table S1)

SMILES | Outcome [1, 3] | pIC50 Value [2, 4] | Outcome [1, 5] | pIC50 Value [2, 6]
Cc1nc(-c2ccccn2)nc(N2CCC(Cc3ccccc3)C2)c1Cl (centres unmarked) [CHEMBL474899] | Active | 5.05 | – | –
O=[N+]([O-])c1cccc(-c2nc3ccccc3[nH]2)c1 [CHEMBL475377] | – | – | Active | 5.47
CCOC(=O)C1=C(C)NC(C)=C(C(=O)OC)C1c1cccc([N+](=O)[O-])c1 (centres unmarked) [CHEMBL475534] | Inactive | 4.48 | – | –
COc1cc(OC)c2c(C)[n+](-c3cccc4ccccc34)c(C)cc2c1.F[B-](F)(F)F [CHEMBL479641] | – | – | Active | 5.79
CCc1ccc(-[n+]2c(C)cc3cc(OC)cc(OC)c3c2C)cc1.F[B-](F)(F)F [CHEMBL479649] | Active | 5.26 | – | –
COc1cc(OC)c2c(C)[n+](-c3ccc4ccccc4c3)c(C)cc2c1.F[B-](F)(F)F [CHEMBL479838] | – | – | Active | 5.47
COc1cc2c(c(OC)c1)C(C)N(c1ccc(OC)c3c(OC)cc(C)cc13)[C@@H](C)C2 (some centres unmarked) [CHEMBL479849] | Inactive | 4.19 | – | –
COc1cc2c(c(OC)c1)C(C)N(c1ccc(OC)c3c(OC)cc(C)cc13)[C@H](C)C2 (some centres unmarked) [CHEMBL479850] | Inactive | 4.18 | – | –
COc1cc(OC)c2c(C)[n+](-c3ccc(O)cc3)c(C)cc2c1.O=C([O-])C(F)(F)F [CHEMBL480760] | Inactive | 4.80 | – | –
COc1cc(OC)c2c(C)[n+](-c3ccc(OC(C)=O)cc3)c(C)cc2c1.F[B-](F)(F)F [CHEMBL480761] | Inactive | 4.00 | – | –
COc1cc(OC)c2c(C)[n+](-c3cccc(C)c3C)c(C)cc2c1.F[B-](F)(F)F [CHEMBL480823] | Inactive | 4.94 | – | –
COc1cc(OC)c2c(C)[n+](-c3c(C)cc(C)cc3C)c(C)cc2c1.F[B-](F)(F)F [CHEMBL480824] | – | – | Active | 5.83
COc1cc(OC)c2c(C)[n+](-c3ccc(C(C)C)cc3)c(C)cc2c1 [CHEMBL481022] | – | – | Active | 5.70
CCCCc1ccc(-[n+]2c(C)cc3cc(OC)cc(OC)c3c2C)cc1.F[B-](F)(F)F [CHEMBL481023] | – | – | Active | 5.57
COc1ccc(-[n+]2c(C)cc3cc(OC)cc(OC)c3c2C)cc1.F[B-](F)(F)F [CHEMBL481565] | Inactive | 4.00 | – | –
COc1cc(OC)c2c(C)[n+](-c3ccc(Cl)cc3)c(C)cc2c1.F[B-](F)(F)F [CHEMBL481566] | Inactive | 4.72 | – | –
COc1cc2c(c(OC)c1)C(C)N(c1ccc(C(C)C)cc1)C(C)C2 (centres unmarked) [CHEMBL481808] | Inactive | 4.30 | – | –
COc1cc(OC)c2c(C)[n+](-c3ccc(C#N)cc3)c(C)cc2c1.O=C([O-])C(F)(F)F [CHEMBL481906] | Inactive | 4.00 | – | –
COc1cc(OC)c2c(C)[n+](-c3ccc4ncccc4c3)c(C)cc2c1.O=C([O-])C(F)(F)F [CHEMBL481907] | Inactive | 4.00 | – | –
COc1cc(OC)c2c(C)[n+](-c3ccc4cc5ccccc5cc4c3)c(C)cc2c1.F[B-](F)(F)F [CHEMBL482393] | – | – | Active | 6.17
COc1cc(OC)c2c(C)[n+](-c3cccc4cc5ccccc5cc34)c(C)cc2c1.F[B-](F)(F)F [CHEMBL482394] | – | – | Active | 6.14
COc1cc(OC)c2c(C)[n+](-c3ccc(C)cc3C)c(C)cc2c1.F[B-](F)(F)F [CHEMBL482395] | – | – | Active | 5.48
Cn1c([N+](=O)[O-])cnc1-c1nnc(N2CCN(C(=O)c3ccccc3)CC2)s1 [CHEMBL482463] | Inactive | 4.98 | – | –
Cn1c([N+](=O)[O-])cnc1-c1nnc(N2CCN(C(=O)c3ccccc3Cl)CC2)s1 [CHEMBL482464] | Inactive | 4.69 | – | –
Cn1c([N+](=O)[O-])cnc1-c1nnc(N2CCN(C(=O)c3cccc(Cl)c3)CC2)s1 [CHEMBL482665] | Inactive | 4.75 | – | –
Cn1c([N+](=O)[O-])cnc1-c1nnc(N2CCN(C(=O)c3cccs3)CC2)s1 [CHEMBL482666] | Inactive | 4.59 | – | –
C[C@H]1COC2=C1C(=O)C(=O)c1c2ccc2c1[C@H](O)CCC2(C)C [CHEMBL485279] | Inactive | 4.33 | – | –
CC(C)C1=Cc2ccc3c(c2C(=O)C1=O)C(=O)CCC3(C)C [CHEMBL485479] | Inactive | 4.75 | – | –

SMILES | Outcome [1, 3] | pIC50 Value [2, 4] | Outcome [1, 5] | pIC50 Value [2, 6]
C[C@H](O)C#CC#CC#CC#CCCCCCCCC(=O)O [CHEMBL487989] | – | – | Active | 5.31
Cc1ncc(-c2ccnc(Nc3ccc(S(C)(=O)=O)cc3)n2)n1C(C)C [CHEMBL488436] | – | – | Active | 5.50
C/C=C/c1cc(O)c(OC)c(OC)c1 [CHEMBL489518] | Inactive | 3.43 | – | –
C=CCCC/C=C\C/C=C\CCCCCCCc1cc(O)cc(O)c1 [CHEMBL496449] | Inactive | 4.98 | – | –
CC(C)=CC(=O)N[C@H]1CC[C@@]2(C)[C@@H](CC[C@@H]3[C@@H]2CC[C@]2(C)C([C@H](C)N(C)C)=CC[C@@H]32)[C@H]1O [CHEMBL496487] | Inactive | 4.95 | – | –
C[C@@H]([C@H]1CC=C2[C@@H]3CCC4=C[C@@H](N(C)C)CC[C@]4(C)[C@H]3CC[C@@]21C)N(C)C [CHEMBL496488] | Active | 5.17 | – | –
C[C@@H]([C@H]1CC[C@H]2[C@@H]3CC[C@H]4C(=O)C(NC=O)=CC[C@]4(C)[C@H]3CC[C@]12C)N(C)C [CHEMBL496489] | Inactive | 4.65 | – | –
COc1ccc([C@@H]2COc3c(ccc4occc34)C2)c(OC)c1O [CHEMBL498724] | Inactive | 4.76 | – | –
COc1ccc([C@@H]2COc3c(ccc4c3C=CC(C)(C)O4)C2)c(OC)c1O [CHEMBL498725] | Inactive | 4.63 | – | –
CC(C)(O)[C@@H]1CC[C@](C)([C@H]2[C@@H](O)C[C@@]3(C)[C@@H]4C[C@H](O)[C@H]5C(C)(C)[C@@H](O[C@@H]6OC[C@@H](O)[C@H](O)[C@H]6O)CC[C@@]56C[C@@]46CC[C@]23C)O1 [CHEMBL500607] | Inactive | 4.25 | – | –
C[C@@H]1C[C@@]2(O[C@H]3C[C@@]4(C)[C@@H]5C[C@H](O)[C@H]6C(C)(C)[C@@H](O[C@@H]7OC[C@@H](O)[C@@H](O)[C@H]7O)CC[C@@]67C[C@@]57CC[C@]4(C)[C@@H]13)O[C@H](O)[C@]1(C)C[C@H]21 [CHEMBL501026] | Inactive | 4.19 | – | –
C/C=C/c1cc(OC)c(OC)c(O)c1OC [CHEMBL501754] | Inactive | 3.41 | – | –
COc1ccc([C@@H]2COc3c(ccc(O)c3CC=C(C)C)C2)c(OC)c1O [CHEMBL501755] | Active | 5.10 | – | –
CN[C@@H](C)[C@H]1CC[C@H]2[C@@H]3CC[C@H]4C[C@@H](N(C)C(=O)c5ccccc5)CC[C@]4(C)[C@H]3CC[C@]12C [CHEMBL503323] | Active | 5.06 | – | –
CC(C)(O)[C@@H]1CC[C@](C)([C@@H]2[C@@H](O)C[C@@]3(C)[C@@H]4C[C@H](O)[C@H]5C(C)(C)[C@@H](O)CC[C@@]56C[C@@]46CC[C@]23C)O1 [CHEMBL504655] | Inactive | 3.97 | – | –
CN[C@@H](C)[C@H]1CC[C@H]2[C@@H]3CC[C@H]4[C@@H](OC(C)=O)[C@@H](NC(=O)C=C(C)C)CC[C@]4(C)[C@H]3CC[C@]12C [CHEMBL504923] | – | – | Active | 5.48
C/C=C(\C)C(=O)N[C@H]1CC[C@]2(C)[C@H]3CC[C@]4(C)[C@@H]([C@H](C)NC)CC[C@H]4[C@@H]3CC[C@H]2[C@H]1OC(C)=O [CHEMBL504924] | – | – | Active | 5.82
CCOC(=O)C1=C(C)NC(=O)NC1c1ccccc1 (centres unmarked) [CHEMBL507603] | – | – | Active | 5.42
COc1cc(OC)c2c(C)[n+](-c3ccc4scnc4c3)c(C)cc2c1.F[B-](F)(F)F [CHEMBL515117] | Inactive | 4.00 | – | –
O=C(c1ccc(Cl)cc1)N1CCN(c2nnc(-c3ccc([N+](=O)[O-])s3)s2)CC1 [CHEMBL515851] | Inactive | 4.62 | – | –
O=C(c1ccc(Cl)s1)N1CCN(c2nnc(-c3ccc([N+](=O)[O-])o3)s2)CC1 [CHEMBL516307] | Inactive | 4.93 | – | –
COc1cc(OC)c2c(C)[n+](-c3cccc4cc5ccccc5cc34)c(C)cc2c1.O=C([O-])C(F)(F)F [CHEMBL516450] | – | – | Active | 5.73
COc1cc(OC)c2c(C)[n+](-c3ccc(C(C)(C)C)cc3)c(C)cc2c1.F[B-](F)(F)F [CHEMBL516763] | – | – | Active | 5.57
Cc1cccc2oc(=O)c3c(c12)O[C@H](C)[C@@]3(C)CC(=O)[C@@H]1OC1(C)C [CHEMBL517042] | Inactive | 4.87 | – | –
CCCc1ccc(-[n+]2c(C)cc3cc(OC)cc(OC)c3c2C)cc1.F[B-](F)(F)F [CHEMBL517690] | – | – | Active | 5.79
O=C(c1ccc(Br)s1)N1CCN(c2nnc(-c3ccc([N+](=O)[O-])s3)s2)CC1 [CHEMBL518866] | Inactive | 4.61 | – | –
COc1cc(OC)c2c(C)[n+](-c3ccc(C(C)C)cc3C(C)C)c(C)cc2c1.F[B-](F)(F)F [CHEMBL519606] | – | – | Active | 6.27
